Experiments:
[1] = test system: southern root-knot nematode (Meloidogyne incognita); assay: Meloidogyne incognita test (MELGIN); type: in vivo; details: application rate 20 ppm, after 14 days, lettuce
Description: 5. Meloidogyne incognita Test (MELGIN) • Solvent: 125.0 parts by weight of acetone To prepare a suitable active compound preparation, 1 part by weight of active compound is mixed with the stated amount of solvent and the concentrate is diluted with water to the desired concentration. Vessels are filled with sand, active compound solution, an egg/larvae suspension of the southern root-knot nematode (Meloidogyne incognita) and lettuce seeds. The lettuce seeds germinate and the plants develop. On the roots, galls are formed. After 14 days, the nematicidal effect in % is determined by the formation of galls. 100% means that no galls have been found; 0% means that the number of galls on the treated plants corresponds to the untreated control.

[2] = log P by HPLC on reversed-phase columns (C 18), EEC directive 79/831 Annex V.A8; type: physicochemical; details: for logP[a]: method [a]; for logP[b]: method [b]
In short: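 Measured by reversed-phase C18 HPLC (LC-MS) with a linear 10→95% acetonitrile gradient. Acidic: pH 2.7, 0.1% formic acid. Neutral: pH 7.8, 0.001 M ammonium bicarbonate.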

[3] = test system: greenhouse red spider mite (Tetranychus urticae); assay: Tetranychus urticae spray test, OP-resistant (TETRUR); type: in vivo; details: after 6 days, bean leaf discs
Description: 4. Tetranychus urticae Spray Test, OP-Resistant (TETRUR)
• Solvents: 78.0 parts by weight of acetone • 1.5 part by weight of dimethylformamide • Emulsifier: 0.5 part by weight of alkylaryl polyglycol ether
To produce a suitable preparation of active compound, 1 part by weight of active compound is mixed with the stated amounts of solvents and emulsifier, and the concentrate is diluted with emulsifier-containing water to the desired concentration.
Discs of bean leaves (Phaseolus vulgaris) which are infested by all stages of the greenhouse red spider mite (Tetranychus urticae) are sprayed with an active compound preparation of the desired concentration.
After 6 days, the efficacy in % is determined. 100% means that all of the spider mites have been killed; 0% means that none of the spider mites have been killed.

Row | SMILES | nematicidal effect in % (formation of galls) [1] [%] | logP[a] [2] | logP[b] [2] | efficacy in % (spider mites killed) ([3]; application rate 500 g/ha) [%] | efficacy in % (spider mites killed) ([3]; application rate 100 g/ha) [%]
1 | Cc1nc2c(=O)n(-c3cc(SCC(F)(F)F)c(C)cc3C)cnc2s1 [Compound 72] | 90 | 2.92 | 2.86 | 90 | 
2 | Cn1ncc2ncn(-c3cc(SCC(F)(F)F)c(Cl)cc3F)c(=O)c21 [Compound 148] | 100 |  |  | 100 | 
3 | CCc1nc2cnn(C)c2c(=O)n1-c1cc([S+]([O-])CC(F)(F)F)c(C)cc1F (stereo not shown) [Compound 147] | 100 |  |  | 100 | 
4 | Cc1cc(Cl)c(-n2c(C)nc3cnn(C)c3c2=O)cc1[S+]([O-])CC(F)(F)F (stereo not shown) [Compound 157] | 90 |  |  | 100 | 
5 | Cc1cc(C)c([S+]([O-])CC(F)(F)F)cc1-n1cnc2sccc2c1=O (stereo not shown) [Compound 97] | 90 | 2.15 | 2.11 |  | 
6 | CCn1ncc2nc(C)n(-c3cc(SCC(F)(F)F)c(C)cc3F)c(=O)c21 [Compound 160] | 100 |  |  | 100 | 
7 | Cc1cc(F)c(-n2cnc3c(C)nsc3c2=O)cc1[S+]([O-])CC(F)(F)F (stereo not shown) [Compound 181] | 90 |  |  | 100 | 
8 | Cc1cc(F)c(-n2cnc3ccsc3c2=O)cc1SCC(F)(F)F [Compound 108] | 90 | 3.01 | 2.90 |  | 
9 | Cc1cc(F)c(-n2cnc3onc(C)c3c2=O)cc1SCC(F)(F)F [Compound 194] | 100 |  |  | 90 | 
10 | Cc1cc(F)c(-n2c(C)nc3cnn(CC4CC4)c3c2=O)cc1[S+]([O-])CC(F)(F)F (stereo not shown) [Compound 170] | 100 |  |  | 100 | 
11 | Cc1c2c(=O)n(-c3ccc(C(F)(F)F)c(SCC(F)(F)F)c3)cnc2nn1C [Compound 45] | 80 | 2.70 | 2.63 |  | 
12 | Cc1cc(F)c(-n2cnc3c(Cl)csc3c2=O)cc1[S+]([O-])CC(F)(F)F (stereo not shown) [Compound 114] | 90 | 2.43 | 2.38 |  | 
13 | CCn1ncc2ncn(-c3cc(SCC(F)(F)F)c(C)cc3F)c(=O)c21 [Compound 159] | 100 |  |  | 100 | 
14 | Cc1cc(F)c(-n2c(C)nc3ncsc3c2=O)cc1[S+]([O-])CC(F)(F)F (stereo not shown) [Compound 188] | 90 |  |  | 100 | 
15 | CCc1noc2ncn(-c3cc([S+]([O-])CC(F)(F)F)c(C)cc3F)c(=O)c12 (stereo not shown) [Compound 198] | 100 |  |  | 90 | 
16 | CCn1ncc2nc(C)n(-c3cc([S+]([O-])CC(F)(F)F)c(C)cc3F)c(=O)c21 (stereo not shown) [Compound 164] | 100 |  |  | 100 | 
17 | O=c1c2ccsc2ncn1-c1ccc(Cl)c([S+]([O-])CC(F)(F)F)c1 (stereo not shown) [Compound 87] | 100 | 2.20 | 2.17 |  | 
18 | Cc1cc(F)c(-n2cnc3onc(C)c3c2=O)cc1[S+]([O-])CC(F)(F)F (stereo not shown) [Compound 196] | 100 |  |  |  | 90
19 | Cc1c2c(=O)n(-c3ccc(Cl)c([S+]([O-])CC(F)(F)F)c3)cnc2nn1C (racemic) [Compound 49] | 90 | 1.78 | 1.75 |  | 
20 | Cc1cc(F)c(-n2cnc3cnn(CC4CC4)c3c2=O)cc1[S+]([O-])CC(F)(F)F (stereo not shown) [Compound 169] | 100 |  |  | 100 | 
21 | Cc1cc(F)c(-n2cnc3csnc3c2=O)cc1[S+]([O-])CC(F)(F)F (stereo not shown) [Compound 212] | 100 |  |  | 90 | 
22 | Cc1cc(F)c(-n2cnc3cnn(CC4CC4)c3c2=O)cc1SCC(F)(F)F [Compound 167] | 100 |  |  | 100 | 
23 | Cc1cc(F)c(-n2c(C(F)(F)F)nc3c(cnn3CC(F)(F)F)c2=O)cc1SCC(F)(F)F [Compound 19] | 90 | 4.20 | 4.10 |  | 

Row | SMILES | nematicidal effect in % (formation of galls) [1] [%] | logP[a] [2] | logP[b] [2] | efficacy in % (spider mites killed) ([3]; application rate 500 g/ha) [%] | efficacy in % (spider mites killed) ([3]; application rate 100 g/ha) [%]
24 | Cc1cc(F)c(-n2c(C)nc3cnn(C(C)C)c3c2=O)cc1SCC(F)(F)F [Compound 162] | 90 |  |  | 100 | 
25 | Cc1ccc(-n2cnc3cnn(C)c3c2=O)cc1[S+]([O-])CC(F)(F)F (stereo not shown) [Compound 142] | 100 |  |  | 100 | 
26 | Cc1nc2cnn(C)c2c(=O)n1-c1cc([S+]([O-])CC(F)(F)F)c(Cl)cc1F (stereo not shown) [Compound 155] | 100 |  |  | 90 | 
27 | O=c1c2ncsc2ncn1-c1cc(SCC(F)(F)F)c(Cl)cc1Cl [Compound 63] | 90 | 2.83 | 2.77 |  | 
28 | Cc1cc(F)c(-n2c(C)nc3scnc3c2=O)cc1SCC(F)(F)F [Compound 64] | 90 | 2.72 | 2.70 |  | 
29 | Cc1nc2c(=O)n(-c3cc(SCC(F)(F)F)c(C)cc3F)cnc2s1 [Compound 70] | 90 | 2.80 | 2.74 |  | 
30 | Cc1cc(F)c(-n2c(C)nc3snc(C)c3c2=O)cc1SCC(F)(F)F [Compound 209] | 100 |  |  | 90 | 
31 | CCn1ncc2ncn(-c3cc([S+]([O-])CC(F)(F)F)c(C)cc3F)c(=O)c21 (stereo not shown) [Compound 163] | 90 |  |  | 100 | 
32 | Cc1nc2cnn(C)c2c(=O)n1-c1cc(SCC(F)(F)F)c(Cl)cc1F [Compound 149] | 100 |  |  | 100 | 
33 | Cc1cc(F)c(-n2cnc3c(cnn3CC(F)(F)F)c2=O)cc1[S+]([O-])CC(F)(F)F (racemic) [Compound 18] | 90 | 2.34 | 2.33 |  | 
34 | Cc1cc(F)c(-n2cnc3onc(C(F)(F)F)c3c2=O)cc1[S+]([O-])CC(F)(F)F (stereo not shown) [Compound 199] | 100 |  |  | 90 | 
35 | Cc1cc(F)c(-n2c(C)nc3snc(C)c3c2=O)cc1[S+]([O-])CC(F)(F)F (stereo not shown) [Compound 210] | 100 |  |  | 100 | 
36 | Cc1cc(F)c(-n2c(C)nc3cnn(CC4CC4)c3c2=O)cc1SCC(F)(F)F [Compound 168] | 90 |  |  |  | 
37 | CCc1noc2ncn(-c3cc(SCC(F)(F)F)c(C)cc3F)c(=O)c12 [Compound 195] | 90 |  |  | 90 | 
38 | Cc1cc(F)c(-n2cnc3onc(C(C)C)c3c2=O)cc1[S+]([O-])CC(F)(F)F (stereo not shown) [Compound 200] | 100 |  |  | 100 | 
39 | Cc1cc(F)c(-n2c(C(F)(F)F)nc3nn(C)cc3c2=O)cc1[S+]([O-])CC(F)(F)F (stereo not shown) [Compound 43] | 90 |  |  |  | 
40 | CCc1nc2cnn(C)c2c(=O)n1-c1cc(SCC(F)(F)F)c(C)cc1F [Compound 146] | 90 |  |  |  | 
41 | Cc1nn(C)c2ncn(-c3ccc(C(F)(F)F)c([S+]([O-])CC(F)(F)F)c3)c(=O)c12 (racemic) [Compound 32] | 90 | 2.39 | 2.34 |  | 
42 | Cc1cc(Cl)c(-n2nnc3cnn(C)c3c2=O)cc1[S+]([O-])CC(F)(F)F (stereo not shown) [Compound 153] | 100 |  |  | 90 | 
43 | CC(C)(C)c1snc2ncn(-c3ccc(Cl)c(SCC(F)(F)F)c3)c(=O)c12 [Compound 117] |  | 4.06 | 3.97 | 90 | 
44 | Cc1cc(F)c(-n2cnc3snc(C)c3c2=O)cc1SCC(F)(F)F [Compound 202] | 90 |  |  | 90 | 
45 | Cc1cc(F)c(-n2cnc3ccsc3c2=O)cc1[S+]([O-])CC(F)(F)F (stereo not shown) [Compound 113] | 90 | 2.35 | 2.31 |  | 

Reference: patent publication US9512128B2 (BAYER CROPSCIENCE AG, priority 2012, dated 2016)
